A word on the IC50: it is the concentration at which inhibition is half-maximal. The inhibition is how much of the control response was suppressed. The term half-life denotes the time needed for the level to fall by half in the phase considered.

Data set [1] addresses T1, Steroid 17-alpha-hydroxylase/17,20 lyase (Homo sapiens, UniProt P05093).
T1 sequence (P05093 whole entry): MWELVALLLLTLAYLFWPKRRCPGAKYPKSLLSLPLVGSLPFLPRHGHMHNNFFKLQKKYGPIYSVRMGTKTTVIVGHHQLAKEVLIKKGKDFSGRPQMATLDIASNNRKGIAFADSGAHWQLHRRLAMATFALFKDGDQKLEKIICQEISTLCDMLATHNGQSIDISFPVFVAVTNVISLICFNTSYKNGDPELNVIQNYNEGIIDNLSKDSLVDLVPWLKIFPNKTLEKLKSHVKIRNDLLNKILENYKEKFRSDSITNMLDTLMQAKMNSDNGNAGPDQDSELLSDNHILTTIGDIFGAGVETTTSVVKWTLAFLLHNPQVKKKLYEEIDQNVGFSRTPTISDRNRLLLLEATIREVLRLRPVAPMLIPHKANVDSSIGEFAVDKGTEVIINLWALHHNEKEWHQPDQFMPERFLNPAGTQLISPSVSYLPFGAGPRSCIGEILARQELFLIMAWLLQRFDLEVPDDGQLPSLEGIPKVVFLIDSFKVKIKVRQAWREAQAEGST
Description: Inhibition of CYP17 in human testicular microsomes using 17alpha-hydroxypregnenolone as substrate assessed as decrease in DHEA levels after 90 mins by ELISA. On the set-up: species or system Testis. A general note: An ELISA detects its analyte on a solid surface through an enzyme-linked reagent.

Data set [2] addresses T1, Steroid 17-alpha-hydroxylase/17,20 lyase. Description: Inhibition of CYP17 in human testicular microsomes using 17alpha-hydroxypregnenolone as substrate assessed as decrease in DHEA levels at 10 nM after 90 mins by ELISA relative to control. Details: species or system Testis. The conditions noted are these: 1.5 h.
Data set [3] is described as follows: Half life in human liver microsomes at 1 uM by LC-MS/MS analysis.
The nature of data set [4]: Half life in rat liver microsomes at 1 uM by LC-MS/MS analysis. A general note: Microsomes from liver hold many membrane-bound enzymes, among them those of drug oxidation.
The target of data set [5] is T2, CYP21 (steroid 21-hydroxylase) (Homo sapiens, UniProt P08686).
T2 sequence (P08686 whole entry): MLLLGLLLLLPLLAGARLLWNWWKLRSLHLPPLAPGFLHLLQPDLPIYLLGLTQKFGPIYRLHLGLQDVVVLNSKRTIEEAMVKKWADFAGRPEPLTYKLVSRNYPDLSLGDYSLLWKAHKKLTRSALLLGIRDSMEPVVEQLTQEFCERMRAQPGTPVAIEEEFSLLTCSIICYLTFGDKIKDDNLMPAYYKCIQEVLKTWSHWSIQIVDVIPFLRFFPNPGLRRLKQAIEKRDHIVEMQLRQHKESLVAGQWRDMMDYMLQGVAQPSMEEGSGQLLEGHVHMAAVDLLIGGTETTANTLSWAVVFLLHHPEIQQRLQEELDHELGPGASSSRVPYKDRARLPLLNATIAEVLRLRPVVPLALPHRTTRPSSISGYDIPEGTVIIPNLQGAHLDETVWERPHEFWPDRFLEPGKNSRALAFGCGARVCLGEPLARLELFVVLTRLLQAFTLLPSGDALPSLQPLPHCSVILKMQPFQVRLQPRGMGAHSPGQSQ
Description: Inhibition of human CYP21 transfected in HEK293 cells assessed as decrease in conversion of progesterone to 11-deoxycorticosterone preincubated for 5 hrs followed by progesterone addition measured after 20 hrs by ELISA. It is filed as cell-based. On the set-up: concentration or dose not given beside the values. The conditions noted are these: HEK293 cells transfected with human CYP21, probe progesterone.

With `C[C@]12CCCCC1C(O)C[C@@H]1[C@@H]2CC[C@]2(C)C(n3ccnc3)=CC[C@@H]12` (stereo partly specified), in data set [1], the IC50 is at most 11 nM. For the same compound, the inhibition at 0.01 µM in data set [2] was in the range of 50 to 80%. Further, the half-life at 1 µM in data set [3] was 1 to 50 min.
For `C[C@]12CC[C@H]3[C@@H](CC=C4C[C@@H](O)CC[C@@]43C)C1=CC=C2n1ccnc1` the same measures were at most 11 nM, at least 80% and at least 50 min.
On to `Cc1cncc(C2=CC[C@H]3[C@@H]4CC(O)C5CCCC[C@]5(C)[C@H]4CC[C@]23C)c1` (stereo partly specified), for which the 50% inhibitory concentration (IC50) in data set [1] was at most 11 nM. The half-life at 1 µM in data set [4] and in data set [3] was 1 to 10 min throughout.
In the case of `COc1cncc(C2=CC=C3[C@@H]4CC=C5C[C@@H](OC(C)=O)CC[C@]5(C)[C@H]4CC[C@]23C)c1`, in data set [1], the 50% inhibitory concentration (IC50) is at most 11 nM. For the same compound, in data set [2], the inhibition at 0.01 µM was at least 80%.
Regarding `C[C@]12CCNC(=O)C=C1CC[C@@H]1[C@@H]2CC[C@]2(C)C(n3ncnn3)=CC[C@@H]12`, in data set [2], the inhibition at 0.01 µM was at least 80%. In addition, the half-life at 1 µM in data set [4] and in data set [3] was 1 to 10 min each time.
For the compound `C[C@]12CCC(=O)CCC1=CC[C@@H]1[C@@H]2CC[C@]2(C)C(n3ccnc3)=CC[C@@H]12`, the half-maximal inhibitory concentration (IC50) in data set [1] is at most 11 nM. The inhibition at 0.01 µM in data set [2] is at least 80%. For the same compound, the half-life at 1 µM in data set [3] fell in the range of 1 to 50 min.
As to `CCCOc1cncc(C2=CC[C@H]3[C@@H]4CCN5C(=O)CCCC[C@]5(C)[C@H]4CC[C@]23C)c1`, the IC50 in data set [1] is at most 11 nM. For the same compound, the inhibition at 0.01 µM in data set [2] is 50 to 80%.
For the compound `COc1cncc(C2=CC[C@H]3[C@@H]4CCC5=CC(=O)NCC[C@]5(C)[C@H]4CC[C@]23C)c1`, in data set [1], the half-maximal inhibitory concentration (IC50) was at most 11 nM. In data set [2], the inhibition at 0.01 µM fell in the range of 50 to 80%.
For `Cc1cncc(C2=CC[C@H]3[C@@H]4CC[C@H]5CCOCC[C@]5(C)[C@H]4CC[C@]23C)c1` the same measures were at most 11 nM and 50 to 80%.
Take `COC1CC2[C@@H]3CC=C(n4ccnc4)[C@@]3(C)CC[C@@H]2[C@@]2(C)CCC3CC312` (single isomer, unassigned): the IC50 in data set [1] is at most 11 nM. Further, the inhibition at 0.01 µM in data set [2] was at least 80%. Further, the inhibition at 20 h in data set [5] fell in the range of 10 to 50%.
As for `CC(=O)O[C@H]1CC[C@@]2(C)[C@@H](CC[C@H]3C4=CC=C(n5ccnc5)[C@@]4(C)CC[C@@H]32)C1`, the IC50 in data set [1] is at most 11 nM. Also, the inhibition at 0.01 µM in data set [2] was at least 80%.
In the case of `CCc1cncc(C2=CC[C@H]3[C@@H]4CCN5CCCCC[C@]5(C)[C@H]4CC[C@]23C)c1`, the inhibition at 0.01 µM in data set [2] fell in the range of 1 to 50%. Moreover, the half-life at 1 µM in data set [4] and in data set [3] was 1 to 10 min throughout.
Turning to `COc1cncc(C2=CC[C@H]3[C@@H]4CC(=O)C5CCCC[C@]5(C)[C@H]4CC[C@]23C)c1` (stereo partly specified), in data set [1], the IC50 is at most 11 nM. The half-life at 1 µM in data set [4] and in data set [3] was 1 to 10 min in each case.
On to `C[C@]12CC[C@H]3[C@@H](CC[C@H]4C[C@@H](O)CC[C@@]43C)C1=CC=C2c1cccnc1`, for which, in data set [1], the IC50 is at most 11 nM. The inhibition at 0.01 µM in data set [2] is at least 80%. Moreover, the half-life at 1 µM in data set [3] is at least 50 min.
As to `C=Cc1cncc(C2=CC[C@H]3[C@@H]4CCN5C(=O)CCCC[C@]5(C)[C@H]4CC[C@]23C)c1`, the IC50 in data set [1] was at most 11 nM. In addition, in data set [2], the inhibition at 0.01 µM was 50 to 80%.
Regarding `Cc1cncc(C2=CC[C@H]3[C@@H]4CC(=O)C5CCCC[C@]5(C)[C@H]4CC[C@]23C)c1` (stereo partly specified), the IC50 in data set [1] is at most 11 nM. In addition, the half-life at 1 µM in data set [4] and in data set [3] was 1 to 10 min throughout.
As to `C[C@]12CC[C@H](O)C[C@@H]1CC[C@@H]1[C@@H]2CC[C@]2(C)C(n3ccnn3)=CC[C@@H]12`, the IC50 in data set [1] is at most 11 nM. Moreover, in data set [2], the inhibition at 0.01 µM was at least 80%.
As to `C[C@]12CC[C@H]3[C@@H](CC[C@H]4C[C@@H](O)CC[C@@]43C)C1=CC=C2n1ccnn1`, the half-life at 1 µM in data set [4] and in data set [3] was 1 to 10 min each time.
